Where two headings read alike, the source gives them in different places.
Columns and labels:
[1] = system: Wnt activity (Sp5-Luc reporter in SW480 cells); assay: Screening assay for Wnt activity: Sp5-Luc reporter gene assay in SW480 colon carcinoma cells; type: cell-based, human; details: 36 to 48 hours
How it was run: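 EC50 values come from a variable-slope four-parameter fit of luminescence normalized to DMSO-only wells. The read-out follows 36–48 h incubation at 37 °C, 5% CO2, in DMEM containing 1% fetal bovine serum. Cells are hygromycin-selected SW480 stably expressing firefly luciferase under a Wnt-responsive Sp5 promoter (eight TCF/LEF sites).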

[2] = system: primary human mesenchymal stem cells (hMSCs); assay: Tenocyte differentiation assay (SCXA-positive cells) in hMSCs; type: cell-based; details: for percent in parentheses under EC50 >100: given for EC50 >100 μM, meaning not defined in this example; for EC50: hMSCs, 4 days, SCXA positive cells
Text: Representative compounds were screened using primary human mesenchymal stem cells (hMSCs) to determine their ability to induce tenocyte differentiation (process by which tendon is developed).
Primary human mesenchymal stem cells (hMSCs) were purchased from Lonza (Walkersville, Md.) and expanded in Mesenchymal Stem Cell Growth Media (Lonza). Cells between passage 3 and 6 were used for the experiments.
Cells were fixed using 4% formaldehyde (Electron Microscopy Sciences), and stained with anti-Sclerasis (anti-SCXA) antibodies (Abgent, San Diego, Calif.) [Webb S., et.al., Retinoic acid receptor signaling preserves tendon stem cell characteristics and prevents spontaneous differentiation in vitro, Stem Cell Research & Therapy 2016, 7:45] overnight at 4° C. […] Number of cells positive for SCXA in each well was quantified using the CellInsight CX5. Data was normalized to the average of 12 DMSO treated wells on the same plate using Dotmatics Studies module. The normalized averages (fold change over DMSO) of 3 replicate wells for each compound concentration were calculated. Due to solubility limitations of some of the compounds, values for higher doses were manually corrected and curve fitting and EC50 determinations were performed using Dotmatics Studies.

[3] = system: SW480 colon carcinoma cells; assay: Cell viability assay (CellTiter-Glo) in SW480 colon carcinoma cells; type: cell-based, human; details: four days
How it was run: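 Viability was taken from CellTiter-Glo ATP luminescence, read about 12 min after reagent addition, relative to DMSO controls. The cells were Sp5-Luc reporter SW480 colon carcinoma cells, 2,000/well in 1% FBS DMEM, exposed to compound for four days at 37 °C.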

GSK3β kinase = GSK3β kinase (Homo sapiens (Human), UniProt P49841); assay: GSK3β kinase assay (Ser/Thr 09 peptide Z-lyte FRET); type: biochemical; details: read-out: EC50 (method: IC50)
Chain of GSK3β kinase (P49841 whole entry): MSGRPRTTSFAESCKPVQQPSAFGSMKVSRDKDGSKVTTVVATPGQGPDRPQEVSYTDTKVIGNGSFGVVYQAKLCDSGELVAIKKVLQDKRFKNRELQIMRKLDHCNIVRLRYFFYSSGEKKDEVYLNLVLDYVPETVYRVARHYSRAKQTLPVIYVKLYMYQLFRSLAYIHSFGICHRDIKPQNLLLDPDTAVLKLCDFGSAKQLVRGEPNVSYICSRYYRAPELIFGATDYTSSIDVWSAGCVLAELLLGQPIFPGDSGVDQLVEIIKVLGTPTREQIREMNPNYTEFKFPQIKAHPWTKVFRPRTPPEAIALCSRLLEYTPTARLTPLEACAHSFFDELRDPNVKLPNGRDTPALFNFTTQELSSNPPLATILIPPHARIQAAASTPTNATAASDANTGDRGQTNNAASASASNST
How it was run: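 Non-radioactive Z-lyte FRET read-out, kinase activity expressed as coumarin/fluorescein emission ratio. Compounds incubated with the reaction mixture one hour at room temperature in duplicate, then development buffer added for another hour. IC50 from non-linear regression of dose-response curves.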

IL-6 = IL-6 inhibition in LPS-stimulated human peripheral blood mononuclear cells (HTRF); type: cell-based; details: for EC50: huPBMCs, LPS 50 ng/mL, 22 hours, IL-6 HTRF; for inhibition at 10 µM: read-out: percent inhibition at 10 μM
How it was run: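 HTRF 665/620 nm ratio, read after 3 h antibody incubation at room temperature, quantified IL-6 released by fresh human PBMCs (1×10e6 cells/mL, 1% FBS-RPMI). The cells got compound, then 50 ng/mL LPS at 2 h, followed by a further 22 h at 37° C. EC50 came from DMSO-normalized readings run in duplicate.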

DYRK1A kinase = DYRK1A kinase (Homo sapiens (Human), UniProt Q13627); assay: DYRK1A kinase assay (Ser/Thr 18 peptide Z-lyte FRET); type: biochemical; details: read-out: EC50 (method: IC50)
How it was run: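 Kinase reactions with compound ran 1 h at room temperature in duplicate, and development reagent was then added for another hour.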

[4] = system: primary human fibroblasts derived from IPF patients (LL29 cells); assay: Inhibition of the fibrotic process: αSMA staining in TGF-β1 treated LL29 fibroblasts; type: cell-based; details: LL29 cells, TGF-β1 20 ng/mL, 4 days, % αSMA positive cells
How it was run: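 LL29 fibroblasts from IPF patients, in F12 medium with 1% FBS, treated with TGF-β1 plus compound; TGF-β1 with DMSO as positive control, DMSO alone as negative control. After 4 days' incubation, SYTOX green nucleic acid stain added at 1 μM final, 30 min at room temperature.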

[5] = recombinant GSK3β, 46 μM ATP, one hour, column head prints EC50
[6] = recombinant DYRK1A, 30 μM ATP, one hour, column head prints EC50
[7] = Homo sapiens, Mesenchymal stem cells, 96 h

Compound | EC50 [1] [nM] | EC50 [2] [nM] | EC50 [3] [nM] | IC50 (GSK3β kinase; [5]) [nM] | EC50 (IL-6) [nM] | IC50 (DYRK1A kinase; [6]) [nM] | EC50 ([1]; Homo sapiens) [nM] | EC50 [2, 7] [nM] | EC50 ([3]; Homo sapiens, 96 h) [nM] | IC50 (GSK3β kinase) [nM] | EC50 (IL-6; Homo sapiens, PBMC) [nM] | IC50 (DYRK1A kinase) [nM] | percent in parentheses under EC50 >100 [2] | EC50 [4] [nM] | inhibition at 10 µM (IL-6; Homo sapiens, PBMC) [%] | EC50 ([4]; Homo sapiens, Fibroblast, 96 h) [nM]
Cn1cc(-c2cc(F)c3[nH]nc(C(=O)NC4CCC(F)(F)CC4)c3c2)cn1 [Compound 16, N-(4,4-Difluorocyclohexyl)-7-fluoro-5-(1-methyl-1H-pyrazol-4-yl)-1H-indazole-3-carboxamide] | – | – | – | – | – | – | > 10000 | 1380 | 7890 | 41 | > 10000 | 378 | – | – | 37.5 | 1010
CC(C)CN1CC[C@H](NC(=O)c2n[nH]c3ccc(-c4cnn(C)c4)cc23)[C@H](F)C1 [Compound 30, N-((3R,4S)-3-Fluoro-1-isobutylpiperidin-4-yl)-5-(1-methyl-1H-pyrazol-4-yl)-1H-indazole-3-carboxamide] | – | – | – | – | – | – | > 10000 | 1470 | > 10000 | 61 | > 10000 | 12 | – | – | – | > 10000
CC(C)CN1CC[C@H](NC(=O)c2n[nH]c3cc(F)c(-c4cnn(C)c4)cc23)[C@@H](F)C1 [Compound 34, 6-Fluoro-N-((3S,4S)-3-fluoro-1-isobutylpiperidin-4-yl)-5-(1-methyl-1H-pyrazol-4-yl)-1H-indazole-3-carboxamide] | – | – | – | – | – | – | > 10000 | 1320 | 1840 | 50 | 3110 | 16 | – | – | – | 439
O=C(Nc1ccc(N2CCCC2)nc1)c1n[nH]c2cc(F)c(-c3cnn(C4CC4)c3)cc12 [Compound 92, 5-(1-Cyclopropyl-1H-pyrazol-4-yl)-6-fluoro-N-(6-(pyrrolidin-1-yl)pyridin-3-yl)-1H-indazole-3-carboxamide] | – | – | – | – | – | – | 2310 | – | > 10000 | 699 | > 10000 | 39 | – | – | 0 | 313
O=C(Nc1ccc(N2CCCC2)nc1)c1n[nH]c2ccc(-c3cnn(C4CCNCC4)c3)cc12 [Compound 93, 5-(1-(Piperidin-4-yl)-1H-pyrazol-4-yl)-N-(6-(pyrrolidin-1-yl)pyridin-3-yl)-1H-indazole-3-carboxamide] | – | – | – | – | – | – | 1590 | – | 823 | 430 | > 10000 | 6 | – | – | 5.5 | 1200
O=C(Nc1ccc(N2CCCC2)nc1)c1n[nH]c2cc(F)c(-c3cnn(C4CCNCC4)c3)cc12 [Compound 94, 6-Fluoro-5-(1-(piperidin-4-yl)-1H-pyrazol-4-yl)-N-(6-(pyrrolidin-1-yl)pyridin-3-yl)-1H-indazole-3-carboxamide] | – | – | – | – | – | – | 798 | – | 732 | 272 | > 10000 | 4 | – | – | 5 | 1380
CN1CCN(c2ccc(NC(=O)c3n[nH]c4cc(F)c(-c5cnn(C)c5)cc34)cn2)CC1 [Compound 95, 6-Fluoro-5-(1-methyl-1H-pyrazol-4-yl)-N-(6-(4-methylpiperazin-1-yl)pyridin-3-yl)-1H-indazole-3-carboxamide] | – | – | – | – | – | – | 175 | – | 286 | 46 | 1000 | 1 | – | – | – | 195
CN1[C@@H]2CC[C@H]1CC(NC(=O)c1n[nH]c3ccc(-c4cnn(C)c4)cc13)C2 (stereo partly drawn) [Compound 146, 5-(1-Methyl-1H-pyrazol-4-yl)-N-((1R,5S)-8-methyl-8-azabicyclo [3.2.1]octan-3-yl)-1H-indazole-3-carboxamide] | – | – | – | – | – | – | 1580 | > 100000 | > 10000 | – | > 10000 | – | (35.9%) | – | 4.7 | > 10000
N-(6-(Difluoromethoxy)pyridin-3-yl)-5-(1-(piperidin-4-yl)-1H-pyrazol-4-yl)-1H-indazole-3-carboxamide [Compound 87] | 216 | – | 554 | 182 | 3850 | 8 | – | – | – | – | – | – | – | 672 | – | –

Further lines, with some results ahead:

EC50 [1] [nM] | EC50 [2] [nM] | EC50 [3] [nM] | IC50 (GSK3β kinase; [5]) [nM] | EC50 (IL-6) [nM] | IC50 (DYRK1A kinase; [6]) [nM] | EC50 ([1]; Homo sapiens) [nM] | EC50 [2, 7] [nM] | EC50 ([3]; Homo sapiens, 96 h) [nM] | IC50 (GSK3β kinase) [nM] | EC50 (IL-6; Homo sapiens, PBMC) [nM] | IC50 (DYRK1A kinase) [nM] | Compound | percent in parentheses under EC50 >100 [2] | EC50 [4] [nM] | inhibition at 10 µM (IL-6; Homo sapiens, PBMC) [%] | EC50 ([4]; Homo sapiens, Fibroblast, 96 h) [nM]
335 | > 100000 | 473 | 20 | 3110 | 4 | – | – | – | – | – | – | 5-(1,2-Dimethyl-1H-imidazol-5-yl)-N-(2-methylthiazol-5-yl)-1H-indazole-3-carboxamide [Compound 139] | (21.2%) | 1240 | – | –
– | – | – | – | – | – | 165 | – | 118 | 30 | 1210 | 1 | CN1CCC(Oc2ccc(NC(=O)c3n[nH]c4cc(F)c(-c5cnn(C)c5)cc34)cn2)CC1 [Compound 96, 6-Fluoro-5-(1-methyl-1H-pyrazol-4-yl)-N-(6-((1-methylpiperidin-4-yl)oxy)pyridin-3-yl)-1H-indazole-3-carboxamide] | – | – | – | 367
– | – | – | – | – | – | 269 | – | 354 | 98 | 2280 | 2 | Cc1ncc(NC(=O)c2n[nH]c3ccc(-c4cnn(C5CCNCC5)c4)cc23)s1 [Compound 97, N-(2-Methylthiazol-5-yl)-5-(1-(piperidin-4-yl)-1H-pyrazol-4-yl)-1H-indazole-3-carboxamide] | – | – | – | 291
– | – | – | – | – | – | 100 | – | 116 | 208 | 1120 | 2 | Cc1ncc(NC(=O)c2n[nH]c3ccc(-c4cnn(C5CCN(C)CC5)c4)cc23)s1 [Compound 98, 5-(1-(1-Methylpiperidin-4-yl)-1H-pyrazol-4-yl)-N-(2-methylthiazol-5-yl)-1H-indazole-3-carboxamide] | – | – | – | 119
– | – | – | – | – | – | 315 | – | 414 | 38 | 2050 | 1 | Cn1cc(-c2cc3c(C(=O)Nc4ccc(OCCN5CCCC5)cc4)n[nH]c3cc2F)cn1 [Compound 155, 6-Fluoro-5-(1-methyl-1H-pyrazol-4-yl)-N-(4-(2-(pyrrolidin-1-yl)ethoxy)phenyl)-1H-indazole-3-carboxamide] | – | – | – | 167

Source: patent US10934297B2, “5-heteroaryl substituted indazole-3-carboxamides and preparation and use thereof” (Samumed, LLC, priority 2018, dated 2021)
